Literature values as cited in patent US20090155388A1, “WEIGHT PHYTO-NUTRACEUTICAL SYNERGISTIC COMPOSITION” (priority 2006, published 2009).

Key:
[1] = system: bacterial resistance mechanism (multidrug pump); conditions: in vitro
[2] = in vivo
[3] = 89 mildly overweight women
lipoprotein lipase (LPL) = conditions: vanadate-stimulated
[4] = third ventricle (i.c.v.) administration
[5] = female mice
[6] = 36 obese patients, maintenance period
[7] = 10 studies
[8] = system: FAS (fatty acid synthase)

In the case of `COc1cc([C@H]2Oc3cc(-c4cc(=O)c5c(O)cc(O)cc5o4)cc(OC)c3O[C@@H]2CO)ccc1O` (racemic) [5′-methoxyhydnocarpin (5′-MHC), 5′-methoxyhydnocarpin], the “potentiation of activity of berberine alkaloids” value [1] is listed as “strongly potentiated”.

For `O=C(O)CC(O)(C(=O)O)C(O)C(=O)O` (single isomer, unassigned; (-)) [(−)-Hydroxycitric acid (HCA), (−)-Hydroxycitric acid], the “body weight, feed consumption, adverse effects” value [2] is listed as “significant decrease in body weight and reduction in feed consumption without any adverse effects” and the “reduction of body weight” value [3] is listed as “significantly greater reduction of body weight”.

In the case of `C[C@@H]1O[C@@H](O[C@H]2C(=O)c3c(O)cc(O)cc3O[C@@H]2c2ccc(O)c(O)c2)[C@H](O)[C@H](O)[C@H]1O` [Astilbin, astilbin], the “release of LPL activity” value (lipoprotein lipase (LPL)) is given as “enhanced the release of lipoprotein lipase (LPL) activity”.

In the case of `C/C=C(\C)C(=O)O[C@@H]1C[C@H]2[C@@H](CC=C3C[C@@H](O[C@H]4C[C@H](OC)[C@H](O[C@H]5C[C@H](OC)[C@H](O[C@@H]6O[C@H](C)[C@@H](O)[C@H](OC)[C@H]6O)[C@@H](C)O5)[C@@H](C)O4)CC[C@@]32C)[C@@]2(O)CC[C@H](C(C)=O)[C@@]12C` [P57AS3], the “reduction of subsequent 24-h food intake” value [4] is listed as 40-60% and the “increase of ATP content” value (hypothalamic neurons) is listed as 50-150%.

In the case of `CNCCC(Oc1ccc(C(F)(F)F)cc1)c1ccccc1` (stereo not drawn) [fluoxetine], the “hyperphagic effect of 5-HT depletor, 5-HT1A agonist, 5-HT antagonist and glucose antimetabolite” value [5] is given as “significantly antagonized”.

For Chromium picolinate, the insulin sensitivity (37 patients, with sulfonylurea agents) is listed as “significantly improves insulin sensitivity”, the “body weight gain and visceral fat accumulation” value (compared with placebo) is listed as “significantly attenuated body weight gain and visceral fat accumulation” and the lean body mass [6] is listed as “able to increase lean body mass”. For the same molecule, the “effect on reducing body weight compared with placebo” value [7] was “relatively small effect”.

In the case of catechin gallate [(−)-CG], the “inhibition of FAS” value [8] is given as “very potent inhibitor of FAS”.
